Patent US20150338423A1, “METHODS FOR DETERMINING RELATIVE BINDING ENERGY OF MONOMERS AND METHODS OF USING THE SAME” (SABIC Global Technologies B.V., priority 2014, published 2015)
pIC50: −log10 of the molar value. Where two headings read alike, the source gives them in different places.

Target: T1, (Homo sapiens, UniProt P03372)
T1 sequence (P03372 1-595): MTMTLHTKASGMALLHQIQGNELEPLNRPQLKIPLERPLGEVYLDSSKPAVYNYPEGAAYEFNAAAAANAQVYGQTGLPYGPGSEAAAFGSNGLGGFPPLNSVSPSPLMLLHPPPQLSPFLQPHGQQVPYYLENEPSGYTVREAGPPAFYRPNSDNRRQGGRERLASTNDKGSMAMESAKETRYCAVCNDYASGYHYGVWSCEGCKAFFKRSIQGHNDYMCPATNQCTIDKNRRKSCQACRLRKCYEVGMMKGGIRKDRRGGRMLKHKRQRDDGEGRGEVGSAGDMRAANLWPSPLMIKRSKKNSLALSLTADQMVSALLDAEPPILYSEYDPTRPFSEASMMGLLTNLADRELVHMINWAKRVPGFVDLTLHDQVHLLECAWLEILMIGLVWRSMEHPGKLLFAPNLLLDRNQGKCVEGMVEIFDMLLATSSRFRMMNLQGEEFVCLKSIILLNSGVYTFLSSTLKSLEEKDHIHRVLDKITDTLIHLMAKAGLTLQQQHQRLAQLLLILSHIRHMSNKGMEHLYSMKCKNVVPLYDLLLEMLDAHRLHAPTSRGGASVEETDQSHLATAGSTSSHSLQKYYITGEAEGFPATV
Assay: in vitro competitive binding assay (radio-ligand displacement), estradiol binding activity

[1] = Table 1, unsubstituted reference monomers, displacement of radio-ligand from ERR-α, read-out: IC50

Protocol: The (IC50) of a particular substance can be determined using conventional competition binding assays. In this type of assay, a single concentration of radioligand (such as an agonist) is used in every assay tube. The ligand is used at a low concentration, usually at or below its Kd value. The level of specific binding of the radioligand is then determined in the presence of a range of concentrations of other competing non-radioactive compounds (usually antagonists), in order to measure the potency with which they compete for the binding of the radioligand. Competition curves can also be computer-fitted to a logistic function as described under direct fit.
IC50 binding concentrations for the alpha in vitro estradiol receptors were tested. Four separate sets of tests were run using a standard competitive binding assay. Samples were dissolved in either ethanol or DMSO. The various compounds were then tested at up to seven different concentrations for each test compound. Each of those tests was run in triplicate. Tests were conducted by displacement of a radio-ligand. For each set of tests a 17P-estradiol control sample was run to ensure proper binding of the natural hormone under the test conditions. Specifically, the IC50 values described herein were determined from in-vitro experiments of the compound binding to ERR-α.

| pIC50 [1] | Structure (SMILES) | other results |
| --- | --- | --- |
|  | COc1cc(C(C)(C)c2ccc(O)c(OC)c2)ccc1O [Example 1A, 4,4′-(propane-2,2-diyl)bis(2-methoxyphenol)] | pIC50 (Table 2, substituted monomers, displacement of radio-ligand from ERR-α, read-out: IC50): < 3.60; estradiol binding activity (with the LBD cavity of ERR-α, in words): reduced or no detectable estradiol binding activity |
|  | CC(C)(c1ccc(O)cc1)c1ccc(C(C)(C)c2ccc(O)cc2)cc1 [Reference ID 7, 4,4′-(1,4-phenylenebis(propane-2,2-diyl))diphenol] | pIC50: 5.41 |
| 4.73 | COC(=O)CCC(C)(c1ccc(O)cc1)c1ccc(O)cc1 [Reference ID 10, Methyl 4,4-bis(4-hydroxyphenyl)pentanoate] |  |
| 5.89 | Cc1cc(C2(c3ccc(O)c(C)c3)CCCCC2)ccc1O [Reference ID 2, 4,4′-(cyclohexane-1,1-diyl)bis(2-methylphenol)] |  |

| Structure (SMILES) | pIC50 [1] | other results |
| --- | --- | --- |
| CCC(CC)(c1ccc(O)cc1)c1ccc(O)cc1 [Reference ID 9, 4,4′-(pentane-3,3-diyl)diphenol] | 8.25 |  |
